Measured values reported in US11396531B2, “Antimicrobial peptides comprising epsilon lysine residues” (priority 2016, dated 2022).

Experiments:
[1] = tested on: Carbapenam-resistant Enterobacter strains (CRE); assay: microbe, parasite or virus in culture; settings: CRE (n = 19 strains), Table 5
Method: (§1) MIC of cationic polymers and polypeptide were tested in accordance with the Clinical and Laboratory Standards Institute (CLSI) guidelines against a panel of antibiotic-susceptible/-resistant bacteria, yeasts and fungal strains. Bacterial and yeast strains were cultured on tryptic soy agar (TSA) and Sabaroud dextrose agar (SDA) plates (Neogen Corporation, MI, USA) overnight respectively. Inocula in Mueller-Hinton broth (MHB) for bacteria and SD broth for C. albicans (Beckton Dickinson, MD, USA) were prepared at 0.5 McFarland. The suspensions were then diluted to a final concentration of 10^5 CFU/ml in a 96-well microtitre plate (SPL Life Sciences Co., Ltd, Korea). […] The antimicrobial activities were compared with topical antiseptic agents, BAK and CHX. A similar protocol was used to determine the MIC of εPL against antibiotic-resistant pathogens. MIC of the polymers and polypeptides against Fusarium strains was determined in full strength RPMI-1640 buffer. Fungal spores were recovered from a 5-day old culture on a potato dextrose agar and diluted to a concentration of 10^5 spores/ml in 0.9% saline solution. A further 50-fold dilution was done in RPMI-1640 buffer and 100 μl of the inoculum was added to 96 well plates containing an equal volume of test peptides at 2-fold serial dilutions. 200 μl of inoculum without any additives and buffer alone served as positive and negative controls, respectively. The plate was then incubated at 30° C. for 48 h. The absorbance value was measured at 600 nm as before and the lowest concentration of the peptide which inhibited 90% growth was reported. All MIC determinations were performed in duplicates.
(§2) MICs of polymers/antibiotics were determined using the microdilution method in 96 well microtitre plates (SPL Life Sciences Co., Ltd, Korea), following the guidelines of Clinical and Laboratory Standards Institute (CLSI) document M100-S18. Briefly, polymers (1-512 μg/ml) or antibiotics were dissolved in appropriate media (Mueller Hinton broth, MHB for bacteria; Sabaroud's Dextrose (SD) broth for yeasts and RPMI buffer for Fusarium strains) and 100 μl of this was then mixed with an equal volume of microbial inoculum (OD600=˜0.08) in the same media and shaken in a closed incubator.

S. aureus or MRSA = type: cell-based, Staphylococcus aureus; settings: Table 4, range over 5 strains
Method: as §1, with “Korea). Polymers and polypeptides were added to the inoculum in 2-fold serial dilutions to give a range of concentrations from 2-1024 μg/ml.” for “Korea).”
as §2

[2] = tested on: primary human dermal fibroblasts (HDFs); assay: MTS cytotoxicity assay
Method: MTS ((3-(4,5-dimethylthiazol-2-yl)-5-(3-carboxymethoxyphenyl)-2-(4-sulfophenyl)-2H-tetrazolium)) assay and high content analysis (HCA) were performed to elucidate the effect of various polymers on metabolic activity and morphological parameters of cultured human dermal fibroblasts (hDF), respectively as described previously. The antineoplastic agent, nocodazole (5 μg/ml), served as the […] control whereas cells treated with PBS served as positive control. The average values from three independent triplicate experiments are reported. Cells were cultured in 96-well plates and scanned (16 randomly selected fields/well) using an automated microscope IN Cell Analyzer 2200 (GE Healthcare). The multi-parametric cytotoxicity bio-application module of the IN Cell Investigator software (GE Healthcare) was used in quantitative estimations and morphotypic analysis of acquired images, which were automatically converted into color-coded heatmaps using Spotrfire® software.
Human dermal fibroblast cells were seeded in 96-well plates (2×10^3 cells/well) and incubated for 24 h at 37° C. and 5% CO2. Cells were then treated with various concentrations of polymers or peptides (62.5 μg/ml-1 mg/ml. At the end of the treatment period (after 24 h), 20 or 50 μl of MTS tetrazolium solution was added into 96-well or 12-well plates and further incubated for 2 h at 37° C. Subsequently, the absorbance was measured at 490 nm using a microplate reader (Infinite M200 Pro, Tecan, Switzerland) and the relative cell viability was calculated. Each treatment was performed in two triplicates and reported.
The cytotoxicity of peptides and polymers were determined using CellTier 96® Aqueous One solution cell proliferation assay kit according to the manufacturer's instruction (Promega Corporation, Madison, Wis.). This assay evaluates mitochondrial function by measuring ability of viable cells to reduce MTS ((3-(4,5-dimethylthiazol-2-yl)-5-(3-carboxymethoxyphenyl)-2-(4-sulfophenyl)-2H-tetrazolium)) into a quantifiable […] formazan product. HDFs were seeded in 96-well plates (2×10^3 cells/well) and incubated for 24 h at 37° C. and 5% CO2. Cells were then treated with a concentrated stock solution of polymers (final concentration 62.5-2000 μg/ml in the well) or peptides (final concentration 4-1000 μg/ml in the well). After 24 h, 20 μl of MTS tetrazolium solution was added into 96-well well plates and further incubated for 2 h at 37° C. Subsequently, the absorbance was measured at 490 nm using a microplate reader (Infinite M200 Pro, Tecan, Switzerland) and the relative cell viability was calculated relative to untreated control (10 mM PBS, pH 7.0). Each treatment was performed in two triplicates and reported.

[3] = Calcein dye leakage from mammalian model LUVs; settings: peptide:lipid ratio 0.0625
Method: To obtain an insight into the mechanism of membrane discrimination, large unilamellar vesicles (LUVs) which mimic the cytoplasmic membrane of mammalian (PC/Cholesterol) and microbial (PE:PG) cells were used. […] More dramatic results were observed when the experiments were carried out on PC/Cholesterol LUVs.

CC[C@H](C)[C@H](NC(=O)CN)C(=O)NCC(=O)N[C@@H](C)C(=O)N[C@H](C(=O)N[C@@H](CC(C)C)C(=O)N[C@@H](CCCCN)C(=O)N[C@H](C(=O)N[C@@H](CC(C)C)C(=O)N[C@H](C(=O)N[C@H](C(=O)NCC(=O)N[C@@H](CC(C)C)C(=O)N1CCC[C@H]1C(=O)N[C@@H](C)C(=O)N[C@@H](CC(C)C)C(=O)N[C@H](C(=O)N[C@@H](CO)C(=O)N[C@@H](Cc1c[nH]c2ccccc12)C(=O)N[C@H](C(=O)N[C@@H](CCCCN)C(=O)N[C@@H](CCCNC(=N)N)C(=O)N[C@@H](CCCCN)C(=O)N[C@@H](CCCNC(=N)N)C(=O)N[C@@H](CCC(N)=O)C(=O)N[C@@H](CCC(N)=O)C(N)=O)[C@@H](C)CC)[C@@H](C)CC)[C@@H](C)O)[C@@H](C)O)C(C)C)C(C)C [Melittin]
MIC50 ([1]; 50% of strains susceptible): (MIC50 = 8)^2 μg/ml
MIC ([1]; range): 8 to 32 µg/mL
MIC against S. aureus or MRSA (n = 5) (S. aureus or MRSA): 4 to 8 µg/mL
Cytotoxicity (in μg/ml) for HDFs ([2]; Concentration at which complete cytotoxicity was observed in MTS and HCA): 16 µg/mL
Cytotoxicity for primary human dermal fibroblasts ([2]; Table 5): 16 µg/mL
dye leakage from PC/Cholesterol LUVs [3]: ~70%
